Measurements reported in patent US20030143729A1 (Synaptic Pharmaceutical Corporation, priority 1992, published 2003).
Like-named read-outs stand apart in the source and are kept apart here.

How the values were obtained:
neuronal cultures = test: [3H]GABA uptake in primary neuronal cell cultures; type: cell-based, rat
Description: Brains were removed aseptically from E17 embryonic Sprague-Dawley rats brains, carefully dissected free of meninges, and kept on ice. A single-cell suspension was made by mincing the brains, followed by trituration through a serological pipette. […] On day three cytosine β-D-arabinofuransoside (3 μM) was added to control the proliferation of non-neuronal cells. The cultures were used for transport assay approximately one week after plating.

rat GAT-3 = biological target: T1, rat GAT-3 (Rattus norvegicus, UniProt P31647)
T1 sequence (P31647 54-627 limits assumed): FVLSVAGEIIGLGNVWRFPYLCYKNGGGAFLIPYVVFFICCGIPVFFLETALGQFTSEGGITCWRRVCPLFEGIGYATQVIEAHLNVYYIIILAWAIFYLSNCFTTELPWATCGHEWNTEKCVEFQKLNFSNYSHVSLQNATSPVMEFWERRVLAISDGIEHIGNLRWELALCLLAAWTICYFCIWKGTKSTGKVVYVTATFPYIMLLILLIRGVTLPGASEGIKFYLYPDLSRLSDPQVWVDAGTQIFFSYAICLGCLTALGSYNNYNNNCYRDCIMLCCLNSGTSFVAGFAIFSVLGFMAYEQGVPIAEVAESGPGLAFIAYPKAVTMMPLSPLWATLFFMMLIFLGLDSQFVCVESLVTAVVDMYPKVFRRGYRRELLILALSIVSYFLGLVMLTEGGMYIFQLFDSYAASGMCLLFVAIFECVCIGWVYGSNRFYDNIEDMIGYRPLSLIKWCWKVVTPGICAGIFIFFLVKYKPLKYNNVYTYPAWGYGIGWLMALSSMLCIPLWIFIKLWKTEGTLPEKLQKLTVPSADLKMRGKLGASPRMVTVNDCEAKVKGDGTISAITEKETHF
Description: (§3) Cells grown in 24-well plates were washed 3× with HEPES-buffered saline (HBS, in mM: NaCl, 150; HEPES, 20; CaCl2, 1; glucose, 10; KCl, 5; MgCl2, 1; pH 7.4) and allowed to equilibrate on a 37° C. slide warmer. After 10 minutes the medium was removed and unlabeled drugs in HBS were added (450 μl/well). […] Plates were incubated at 37° C. for 10 minutes, then washed rapidly 3× with ice-cold HBS, using a 24-position plate washer (Brandel, Gaithersburg, Mass.; model PW-12). Cells were solubilized with 0.05% sodium deoxycholate/0.1N NaOH (0.25 ml/well), an aliquot neutralized with 1N HCl, and radioactivity was determined by scintillation counting. Protein was quantified in an aliquot of the solubilized cells using a BIO-RAD protein assay kit, according to the manufacturer's directions.
(§4) Lipophilic inhibitors were dissolved in DMSO.
(§5) Data Analysis: Competition curves were conducted in duplicate, using 10 concentrations of unlabeled drug.
(§6) COS cells grown in 75 cm^2 or 150 cm^2 flasks in DMEM with 10% bovine calf serum, 100 U/ml penicillin G, and 100 μg/ml streptomycin sulfate (37° C., 5% CO2) were transfected using DEAE-dextran. On the day following transfection the cells were split into 24-well assay plates coated with poly-D-lysine (10 μg/ml), and transport was measured 24 hours later.
(§7) After 10 minutes the medium was removed and unlabeled drugs in HBS were added (450 μl/well). […] Plates were incubated at 37° C. for 10 minutes, then washed rapidly 3× with ice-cold HBS, using a 24-position plate washer (Brandel, Gaithersburg, Mass.; model PW-12). Cells were solubilized with 0.05% sodium deoxycholate/0.1N NaOH (0.25 ml/well), an aliquot neutralized with 1N HCl, and radioactivity was determined by scintillation counting. Protein was quantified in an aliquot of the solubilized cells using a BIO-RAD protein assay kit, according to the manufacturer's directions.

O-2A/Type 2 astrocytes = test: [3H]GABA uptake in O-2A/Type 2 astrocyte cultures; type: cell-based, rat
Description: (§1) Preparation of primary rat astrocyte cell cultures: Primary glial cultures were established from newborn Sprague-Dawley rat brains. Brains minus cerebella were removed aseptically and carefully dissected free of meninges. […] The cells were dissociated by trituration through a serological pipette. Separate procedures were then used for the preparation of Type-1 and O-2A/Type-2 astrocyte cultures, as will now be described.
(§2) For the preparation of Type-1 astrocyte cultures, cells were plated onto uncoated 75 cm^2 flasks at low density (1 brain per 10 flasks, or approximately 8×10^4 cells/cm^2). The medium was changed the following day and twice a week thereafter. […] Cultures highly enriched in O-2A/Type-2 cells were prepared from mixed astrocyte cultures which consisted of a monolayer of Type 1 cells upon which rested large numbers of O-2A/Type 2 cells. […] The same brain cell suspensions as described above were plated at high density (1 brain per 75 cm^2 flask, or approximately 8×10^5 cells/cm^2) into flasks coated with poly-D-lysine (10 μg/ml). After 24 hours the medium was replaced and the cultures were subsequently fed twice a week. […] Complete medium was added to the flasks and the cell suspension was removed gently, care being taken to not disrupt the underlying Type 1 astrocyte monolayer. The cells were pelleted at low speed, resuspended in complete medium, and added to 24-well plates coated with poly-D-lysine (10 μg/ml). […] No attempt was made to distinguish or separate O-2A precursors from the more differentiated Type 2 astrocytes.

rat GAT-1 = rat GAT-1 (Rattus norvegicus, UniProt P23978); test: cell-based
Description: as §3, §4, §5, §6, §7

Type 1 astrocytes = test: [3H]GABA uptake in Type 1 astrocyte cultures; type: cell-based, rat; settings: read-out: IC50 for inhibition of [3H]GABA uptake, Type 1 astrocytes
Description: as §1, §2

GAT-3 = biological target: T2, GAT-3 (Rattus norvegicus, UniProt P31647); test: [3H]GABA uptake by COS cells transfected with GAT-3 (rB8b or K438-rB8b); type: cell-based
T2 sequence (P31647 1-627): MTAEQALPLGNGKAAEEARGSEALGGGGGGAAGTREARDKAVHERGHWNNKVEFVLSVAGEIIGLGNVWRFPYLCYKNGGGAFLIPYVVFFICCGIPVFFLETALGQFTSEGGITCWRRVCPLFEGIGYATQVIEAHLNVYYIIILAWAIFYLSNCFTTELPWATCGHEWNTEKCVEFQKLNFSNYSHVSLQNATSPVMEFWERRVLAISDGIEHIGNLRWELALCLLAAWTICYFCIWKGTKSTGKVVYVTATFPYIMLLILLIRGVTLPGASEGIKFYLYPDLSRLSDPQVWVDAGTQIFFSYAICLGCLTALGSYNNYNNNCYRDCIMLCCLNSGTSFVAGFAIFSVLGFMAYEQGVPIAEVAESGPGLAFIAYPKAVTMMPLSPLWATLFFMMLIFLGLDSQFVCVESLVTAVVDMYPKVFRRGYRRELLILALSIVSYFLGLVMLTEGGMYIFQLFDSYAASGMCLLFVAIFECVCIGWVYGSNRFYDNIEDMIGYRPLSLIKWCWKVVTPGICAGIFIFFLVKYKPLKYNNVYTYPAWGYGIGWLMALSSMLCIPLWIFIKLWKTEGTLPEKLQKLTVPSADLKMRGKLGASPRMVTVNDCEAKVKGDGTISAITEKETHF

[1] = Rattus norvegicus, Neuron, read-out: IC50 for inhibition of [3H]GABA uptake, Neurons with NNC-711, in the presence of 10 μM NNC-711
[2] = Rattus norvegicus, Neuron, read-out: IC50 for inhibition of [3H]GABA uptake, Neurons, absence of NNC-711
[3] = Rattus norvegicus, Astrocyte, 3 h, read-out: IC50 for inhibition of [3H]GABA uptake, O-2A/Type 2 astrocytes with NNC-711, in the presence of 10 μM NNC-711
[4] = Rattus norvegicus, Astrocyte, 3 h, read-out: IC50 for inhibition of [3H]GABA uptake, O-2A/Type 2 astrocytes, absence of NNC-711
[5] = Rattus norvegicus, Astrocyte, 3 h
[6] = read-out: IC50 for inhibition of [3H]GABA uptake, Neurons with NNC-711, in the presence of 10 μM NNC-711
[7] = read-out: IC50 for inhibition of [3H]GABA uptake, Neurons, absence of NNC-711
[8] = read-out: IC50 for inhibition of [3H]GABA uptake, rGAT-3 (Table 8), full competition curves, 50 nM [3H]GABA
[9] = read-out: IC50 for inhibition of [3H]GABA uptake, O-2A/Type 2 astrocytes with NNC-711, in the presence of 10 μM NNC-711
[10] = read-out: IC50 for inhibition of [3H]GABA uptake, O-2A/Type 2 astrocytes, absence of NNC-711
[11] = COS, read-out: % Inhibition of [3H]GABA uptake, GAT-3

Row | Molecule | IC50 (neuronal cultures; [1]) [µM] | IC50 (neuronal cultures; [2]) [µM] | IC50 (rat GAT-3) [µM] | IC50 (O-2A/Type 2 astrocytes; [3]) [µM] | IC50 (O-2A/Type 2 astrocytes; [4]) [µM] | IC50 (rat GAT-1) [µM] | IC50 (Type 1 astrocytes; [5]) [µM] | IC50 (neuronal cultures; [6]) [µM] | IC50 (neuronal cultures; [7]) [µM] | IC50 (rat GAT-3; [8]) [µM] | IC50 (O-2A/Type 2 astrocytes; [9]) [µM] | IC50 (O-2A/Type 2 astrocytes; [10]) [µM] | IC50 (Type 1 astrocytes) [µM] | inhibition at 100 µM (GAT-3; [11]) [%] | further results
1 | NCCS(=O)O [hypotaurine] | 25 ± 2 | 742 ± 200 | 73 ± 7 | 29 ± 15 | 620 | 1010 | 69 ± 30 |  |  |  |  |  |  |  | 
2 | N=C(N)NCCS(=O)(=O)O [GES, guanidinoethanesulfonic acid] |  |  |  |  |  |  |  | 508 ± 60 | 2110 | 915 ± 49 | 603 ± 300 | 1560 | 310 ± 60 |  | 
3 | O=C(O)C1=CCCN(CCON=C(c2ccccc2)c2ccccc2)C1 [NNC-711] |  |  |  |  |  |  |  |  | 0.28 ± 0.1 | 349 ± 151 |  | 0.07 | 2 ± 0.3 |  | specific [3H]GABA uptake that persisted, neuronal cultures (neuronal cultures; NNC-711 at 10 μM): 31±1%; IC50 (neuronal cultures; read-out: IC50 for [3H]GABA uptake, neuronal cultures): ~0.3 µM; IC50 (rat GAT-3; read-out: IC50 for inhibition of [3H]GABA uptake, rat GAT-3, transient transfection, 50 nM [3H]GABA): 349 ± 151 µM; specific [3H]GABA uptake that persisted, O-2A/Type 2 astrocytes (O-2A/Type 2 astrocytes; NNC-711 at 10 μM): 26±4%
4 | hydroxynipecotic acid [OH-nipecotic] |  |  |  |  |  |  |  | 304 ± 100 | 22 ± 2 | 467 ± 53 | 197 ± 20 | 17 ± 3 | 1610 |  | % Inhibition of [3H]GABA uptake, GAT-3 (GAT-3; inhibitor 10 μM, 50 nM [3H]GABA, 10 minutes, 37° C.): 5 ± 2 (3) %
5 | NCCCC(=O)O [GABA, gamma-aminobutyric acid] |  |  | 33 ± 10 |  |  |  |  |  |  |  |  |  |  |  | VMAX of GABA transport, COS/rB8b and/or COS/K438-rB8b (GAT-3) (GAT-3; various concentrations of [3H]GABA, 30 seconds): 3.0±0.9 nmoles/mg protein
6 | O=C(O)C1=CCCNC1 [guvacine] |  |  | 378 ± 175 |  |  | 39 ± 6 | 23 ± 10 |  |  |  |  |  |  |  | IC50 (neuronal cultures; Rattus norvegicus, Neuron, read-out: IC50 for inhibition of [3H]GABA uptake, Neurons): 14 ± 2 µM; IC50 (O-2A/Type 2 astrocytes; Rattus norvegicus, Astrocyte, 3 h, read-out: IC50 for inhibition of [3H]GABA uptake, O-2A/Type 2 astrocytes): 8 ± 0.9 µM; inhibition at 10 µM (GAT-3; [11]): 8 ± 5%
7 | NCCS(=O)(=O)O [taurine, 2-aminoethanesulfonic acid] |  |  | 2860 |  | 13000 | 32300 |  |  |  |  |  |  |  |  | 
8 | N[C@@H]1CCC[C@H](C(=O)O)C1 (relative stereo) [ACHC, cis-3-aminocyclohexanecarboxylic acid] | 1950 | ~75 | 55100 | 2360 | ~35 | 132 ± 44 | 400 ± 200 |  | 77 ± 8 |  |  |  |  | 0 | IC50 (neuronal cultures; Rattus norvegicus, read-out: IC50, NNC-711-resistant GABA transport, neuronal cultures, in the presence of 10 μM NNC-711): ~2000 µM; IC50 (O-2A/Type 2 astrocytes; Rattus norvegicus, Astrocyte, read-out: IC50 for GABA transport, O-2A/Type 2 astrocytes, in the presence of 10 μM NNC-711): ~2000 µM
9 | NCCC(=O)O [β-alanine] | ~50 | 4060 | 110 ± 40 | ~25 | 2030 | 2920 ± 197 | 100 ± 30 | 48 ± 10 |  |  | 24 ± 8 |  |  | 70 ± 1 | IC50 (neuronal cultures; Rattus norvegicus, read-out: IC50 for [3H]GABA uptake, neuronal cultures, absence of NNC-711): ~4000 µM; IC50 (O-2A/Type 2 astrocytes; Rattus norvegicus, Astrocyte, read-out: IC50 for GABA transport, O-2A/Type 2 astrocytes): ~2000 µM
10 | NCC[C@H](N)C(=O)O [L-DABA, L-(2,4)diaminobutyric acid] | 861 ± 225 | 165 ± 20 | 710 ± 237 | 91 ± 30 | 74 | 128 ± 12 | 3460 |  |  |  |  |  |  | 4 ± 1 | 
